Experimental data as given in patent US20220233469A1, “METHODS, COMPOSITIONS AND DEVICES FOR TREATING NEUROINFLAMMATORY CONDITIONS” (ALYRA BIOTECH PTY LTD, priority 2019, published 2022).
“Also recorded” adds a separate entry of the source.

Assays:
[1] = test system: dorsal horn microglia; test: Activation of dorsal horn microglia (Iba1 immunofluorescence) after intrauterine LPS in mice; assay type: in vivo, mouse; conditions: for LPS-induced activation of spinal microglia (Iba1 staining, dorsal horn): intrauterine, given with LPS (100 ug/kg) once per estrus cycle over three cycles, Amitriptyline 28 ug/kg, TAK-242 36 ug/kg
From the text: (§1) We first recognised that neuroinflammatory conditions of the nervous system may be, at least in part, due to activation of the innate immune system within the uterus resulting in activation of glial cells in the dorsal horn of the spinal cord. To model this in mice, a study was undertaken administering LPS (lipopolysaccharide), a potent immune activator, to the uterus of mice once per estrus cycle over three cycles.
(§2) Studies were also undertaken to investigate whether a small dose of amitriptyline, an inhibitor of the pattern recognition receptors TLR, NOD, CLR, RIG-1 and MDA-5, administered with LPS within the uterus could prevent LPS-induced activation of spinal glial cells. To confirm that the amitriptyline was acting, at least in part, by blocking TLRs, an investigation was also conducted on mice given a small dose of pure TLR4 blocker-TAK-242—with LPS.
(§3) The Nonsurgical Embryo Transfer Device (Paratech, USA) was used to allow insertion of fluid into the uterus with brief, mild discomfort to the mouse, and no need for anaesthesia. Following three estrus cycles, glial activation in the dorsal horn of the spinal cord was measured using immunofluorescence. Activation of dorsal horn astrocytes was assessed using GFAP. Activation of dorsal horn microglia was assessed using Iba1. We compared the activation of spinal glia in mice with intrauterine administration of saline only, saline and LPS (100 ug/kg), saline LPS (100 ug/kg) and Amitriptyline (28 ug/kg), and saline LPS (100 ug/kg) and TAK-242 (36 ug/kg).
(§4) The spinal cord was assessed using immunohistochemistry techniques across levels T10, T11, T12, T13, L1, L2, L3, L4, L5, L6, S1 and S2 where T represents the thoracic segment of the spinal cord, L represents the lumbar segment of the spinal cord and S represents the sacral segment of the spinal cord. The regions of interest in the dorsal horn include Laminae I, II, III and IV. Changes in spinal glial reactivity are causally linked to all known models of neuroinflammatory medical conditions.

[2] = test system: spinal glial cells; test: Spinal glial activation after intrauterine LPS in mice; assay type: in vivo, mouse; conditions: for LPS-induced spinal glial activation: intrauterine co-administration with LPS (100 ug/kg), Amitriptyline 28 ug/kg, TAK-242 36 ug/kg
From the text: as §1, §2, §3, §4

[3] = used orally in clinical practice; cited from earlier work
[4] = test system: dorsal horn astrocytes; test: Activation of dorsal horn astrocytes (GFAP immunofluorescence) after intrauterine LPS in mice; assay type: in vivo, mouse; conditions: for LPS-induced activation of spinal astrocytes (GFAP staining, dorsal horn): intrauterine, given with LPS (100 ug/kg) once per estrus cycle over three cycles, Amitriptyline 28 ug/kg, TAK-242 36 ug/kg; for integrated density of GFAP staining (activated astrocytes within the dorsal horn): level of T12, intrauterine LPS with Amitriptyline or TAK-242 vs LPS, p=0.0002
From the text: as §1, §2, §3, §4

[5] = Facial Grimace Score after intrauterine LPS in mice; assay type: in vivo, mouse; conditions: for Facial Grimace Score: mice, 24 hours following the final LPS stimulation
[6] = test system: HEK293/Null; test: RIG-I-/MDA-5- control cell line HEK293/Null stimulated with hIFNα; assay type: cell-based, human; conditions: stimulated with recombinant hIFNα at 100 IU/mL
Description: RIG-I and MDA-5 stimulation were tested by assessing IRF3 activation in HEK293 cells expressing human RIG-I or MDA-5 genes. The activity of the test articles was tested on human RIG-I and MDA-5 expressing cells as a potential agonist or antagonist. The test articles were evaluated at one concentration and compared to control ligands. This step was performed in triplicate. The results are provided as Relative Luminescence Units (RLUs).
RIG-I^−/MDA-5^− Cell Lines: HEK293/Null: Control for human RIG-I and MDA-5 Poly(I:C)HMW/LyoVec at 1 μg/mL. Antagonist: 500 ng/mL 5′ppp-dsRNA/LyoVec at 1 μg/mL. Antagonist: 500 ng/mL hIFNα at 1000 IU/mL. Antagonist: 100 IU/mL.
In a 96-well plate (200 μL total volume) containing the appropriate cells (25,000-50,000 cells/well), 20 μL of the test article or of the positive control ligand was added to the wells. For the antagonist assay, the test article was incubated with the cells, at 37° C. with 5% CO2, for 30 minutes prior to the addition of the positive control ligand to the wells. After 20 hour incubation, activation of the IRF pathway was monitored using a luciferase detection assay. Luciferase activity was assayed in triplicate from the supernatant of the induced cells, and the relative luminescence units (RLUs) are detected by a Promega GloMax Luminometer.

[7] = test system: HEK293/Null1; test: TLR-/NLR- control cell line HEK293/Null1 stimulated with TNFa; assay type: cell-based, human; conditions: stimulated with TNFa at 10 ng/mL
Description: (§5) Toll-Like Receptor (TLR), NOD-Like Receptor (NLR) and C-Type Lectin Receptor (CLR) stimulation were tested by assessing NF-κB activation in HEK293 cells expressing a given TLR, NLR or CLR. The activity of the test articles was tested at one concentration and compared to control ligands. These steps were performed in triplicate. In a 96-well plate (200 μL total volume) containing the appropriate cells (50,000-75,000 cells/well), 20 μL of the test article or the positive control ligand was added to the wells. For the antagonist assay, the test article was incubated with the cells, at 37° C. with 5% CO2, for 30 minutes prior to the addition of the positive control ligand to the wells. The media added to the wells was designed for the detection of NF-κB induced SEAP expression. After a 16-24 hr incubation the optical density (OD) was read at 650 nm on a Molecular Devices SpectraMax 340PC absorbance detector.

[8] = test system: HEK293/Null2; test: TLR-/NLR- control cell line HEK293/Null2 stimulated with TNFa; assay type: cell-based, human; conditions: stimulated with TNFa at 10 ng/mL
Description: as §5

[9] = target: T1, Human TLR7 (Homo sapiens, UniProt Q9NYK1); test: Human TLR antagonist screening: NF-κB activation in HEK293 cells, TLR7; assay type: cell-based; conditions: antagonist mode; test article 1 μM, +CL307 10 ng/ml; No Sample 13, Control- 1
T1 construct: expressed in transfected cells; host or cells: HEK293
T1 sequence (Q9NYK1 27-1049): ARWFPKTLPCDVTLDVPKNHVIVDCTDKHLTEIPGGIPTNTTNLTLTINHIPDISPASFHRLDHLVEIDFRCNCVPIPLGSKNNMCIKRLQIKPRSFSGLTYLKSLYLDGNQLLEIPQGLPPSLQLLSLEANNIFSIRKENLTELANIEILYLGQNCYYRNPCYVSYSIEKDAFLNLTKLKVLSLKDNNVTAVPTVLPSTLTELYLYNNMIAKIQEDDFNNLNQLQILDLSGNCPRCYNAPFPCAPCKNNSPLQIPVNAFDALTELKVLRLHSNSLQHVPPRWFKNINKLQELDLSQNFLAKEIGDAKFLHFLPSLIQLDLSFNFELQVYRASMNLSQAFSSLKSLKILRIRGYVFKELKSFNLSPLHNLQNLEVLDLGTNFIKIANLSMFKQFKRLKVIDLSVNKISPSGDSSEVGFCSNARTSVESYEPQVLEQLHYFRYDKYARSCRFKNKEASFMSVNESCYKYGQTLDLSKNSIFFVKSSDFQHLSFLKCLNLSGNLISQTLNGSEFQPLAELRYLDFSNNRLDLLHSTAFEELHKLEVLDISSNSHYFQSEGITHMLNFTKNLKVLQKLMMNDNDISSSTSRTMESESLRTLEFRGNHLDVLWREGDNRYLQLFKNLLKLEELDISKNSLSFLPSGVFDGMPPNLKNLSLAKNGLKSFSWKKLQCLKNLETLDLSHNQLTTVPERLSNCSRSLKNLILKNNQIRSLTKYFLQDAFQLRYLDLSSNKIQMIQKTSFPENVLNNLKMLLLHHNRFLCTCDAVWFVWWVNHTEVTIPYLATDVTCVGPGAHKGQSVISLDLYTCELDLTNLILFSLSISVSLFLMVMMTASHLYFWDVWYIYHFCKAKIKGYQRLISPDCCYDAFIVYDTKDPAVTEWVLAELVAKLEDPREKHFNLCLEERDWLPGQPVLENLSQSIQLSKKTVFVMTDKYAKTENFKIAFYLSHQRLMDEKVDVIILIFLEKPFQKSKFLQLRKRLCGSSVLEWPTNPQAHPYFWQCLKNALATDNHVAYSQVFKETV
Description: as §5, with “triplicate. […] CL307 at 1 μg/mL Antagonist: 10 ng/mL.” for “triplicate.”, “expression.” for “expression. After a 16-24 hr incubation the optical density (OD) was read at 650 nm on a Molecular Devices SpectraMax 340PC absorbance detector.”

[10] = intrauterine LPS with Amitriptyline or TAK242
[11] = intrauterine LPS (100 ug/kg) compared with saline

CN(C)CCC=C1c2ccccc2CCc2ccccc21 [Amitriptyline]
LPS-induced activation of spinal microglia (Iba1 staining, dorsal horn) [1]: blocked the impact of intrauterine LPS at multiple levels of the spinal cord and reduced microglial reactivity to basal levels; also recorded: appears to reduce microglial reactivity to basal levels | LPS-induced activation of spinal microglia (Iba1 staining, dorsal horn) ([1]; listed as amitriptyline): prevented LPS-induced activation of spinal astrocytes and microglia | LPS-induced spinal glial activation [2]: showed additional activity reducing spinal glial activation above TAK-242 alone | LPS-induced spinal glial activation ([2]; listed as amitriptyline): effect was prevented | clinical use [3]: has been used successfully to treat PMS and depression | LPS-induced activation of spinal astrocytes (GFAP staining, dorsal horn) [4]: blocks the impact of intrauterine LPS at multiple levels of the spinal cord and appears to reduce astrocytic reactivity to below basal levels | LPS-induced activation of spinal astrocytes (GFAP staining, dorsal horn) ([4]; listed as amitriptyline): prevented LPS-induced activation of spinal astrocytes and microglia; also recorded: reduced spinal activation of astrocytes below baseline levels; also recorded: blocked the impact of intrauterine LPS at multiple levels of the spinal cord and reduced astrocytic reactivity to below basal levels | integrated density of GFAP staining (activated astrocytes within the dorsal horn) [4]: significantly reduce LPS effect | proportion of mice displaying severe grimace ([5]; intrauterine LPS with amitriptyline vs LPS only, categorical assessment, p=0.043): significantly reduced severe grimace behaviour | Facial Grimace Score [5, 10]: reduced these scores | effect on control cell line HEK293/Null [6]: inhibitory effect | effect on control cell line HEK293/Null1 [7]: slight inhibitory effect | effect on control cell line HEK293/Null2 [8]: slight inhibitory effect

CNCCC=C1c2ccccc2CCc2ccccc21 [Nortriptyline]
effect on control cell line HEK293/Null1 [7]: slight inhibitory effect | Fold Induction [9]: slight potentiating effect | effect on control cell line HEK293/Null2 [8]: slight inhibitory effect

CCOC(=O)C1=CCCC[C@H]1S(=O)(=O)Nc1ccc(F)cc1Cl [TAK-242]
LPS-induced activation of spinal microglia (Iba1 staining, dorsal horn) [1]: prevented LPS-induced activation of spinal astrocytes and microglia; also recorded: reduced spinal activation of microglia below baseline levels | LPS-induced activation of spinal microglia (Iba1 staining, dorsal horn) ([1]; listed as TAK242): blocked the impact of intrauterine LPS at multiple levels of the spinal cord and reduced microglia reactivity to basal levels; also recorded: appears to reduce microglia reactivity to basal levels | LPS-induced spinal glial activation [2]: effect was also prevented; also recorded: block spinal glial activation following intrauterine administration of LPS | LPS-induced activation of spinal astrocytes (GFAP staining, dorsal horn) [4]: prevented LPS-induced activation of spinal astrocytes and microglia | LPS-induced activation of spinal astrocytes (GFAP staining, dorsal horn) ([4]; listed as TAK242): blocked the impact of intrauterine LPS at multiple levels of the spinal cord and reduced astrocytic reactivity to below basal levels; also recorded: blocks the impact of intrauterine LPS at multiple levels of the spinal cord and appears to reduce astrocytic reactivity to below basal levels | integrated density of GFAP staining (activated astrocytes within the dorsal horn) [4]: significantly reduce LPS effect | Facial Grimace Score [5, 10]: reduced grimace scores non-significantly

lipopolysaccharide [LPS]
activation of spinal microglia (Iba1 staining) [1, 11]: induced activation of spinal astrocytes and microglia; also recorded: localised increase in Iba1 microglial staining throughout select levels of the spinal cord; also recorded: induced activation of microglia with inconsistent effect across levels | activation of spinal glial cells ([2]; intra-uterine LPS): activate spinal glial cells, including astrocytes and microglia | activation of spinal astrocytes (GFAP staining) [4, 11]: induced activation of spinal astrocytes and microglia; also recorded: substantial increase in GFAP astrocyte staining throughout multiple levels of the spinal cord; also recorded: induced activation of astrocytes at multiple levels of the spinal levels compared with saline | Facial Grimace Score ([5]; intrauterine LPS vs saline): caused a significant increase in the presentation of Grimace behaviours in animals
